Bridges are numbered along the chain shown (N, C = ends). Roman numbers before positions name the chains, in order. Where no end group is shown, it is not given here. The star is where a group is joined. StBu = CC(C)(C)S*

Experiment [1] deals with T1, Transferrin (Homo sapiens, UniProt P02787). The experiment is described as follows: SPR solution phase KD of candidate affinity elements, transferrin immobilized (Biacore T100). Type of experiment: binding. The following applies: steady-state response, 25° C., PBST. On the procedure:
Transferrin 25 μg/ml in immobilization buffer selected for correct pH was then applied 302 at a flow rate of 5 to 10 μl/min for a contact time of about 5 to 10 minutes, allowing the amine functionality on the transferrin 308 to displace the activated NHS ester and bond to the surface via an amide bond. Finally, ethylene diamine (1M ethylene diamine-HCl at pH 8.5) was applied 304 at a flow rate of 5 to 10 μl/min for a contact time of about 6 to 7 minutes to deactivate any remaining reactive groups on the dextran chip surface. Flow rates and contact times are adjusted as necessary to provide the surface concentration of target desired for the intended application, and may vary by target. In general, for evaluating whether binding occurs, it is preferable to immobilize a relatively large quantity of target, and higher flow rates and/or longer contact times may be used. For determining kinetics, it is preferable to limit the amount of target immobilized so as to minimize rebinding and avidity effects, and lower flow rates and/or contact times may be used.
Candidate affinity elements for the transferrin synbody TRF19, TRF21, TRF23, TRF24, TRF25, and TRF26 were individually evaluated for solution phase KD with respect to transferrin by SPR analysis. Because the off rates for these polypeptides were very high, KD values were estimated by measuring steady-state response for at least five concentrations in a two-fold dilution series, each concentration tested in duplicate. For each experiment, response data were processed using a reference surface to correct for bulk refractive index changes and any non-specific binding. Data were also double referenced using responses from blank running buffer injections. Each experiment was conducted at 25° C. using PBST (0.01M Phosphate Buffered Saline, 0.138M NaCl, 0.0027M KCl, 0.05% surfactant Tween20, pH 7.4) as the running buffer on a Biacore T100 instrument. Analytes were injected for 60 s at a flow rate of 30 μl/min. The antigen surfaces were regenerated with 30 s consecutive pulses of NaOH/NaCl (50 mM NaOH in 1M NaCl) and Glycine (10 mM glycine-HCl, pH 2.5).
Background: In SPR one partner is held on a chip, and binding of the other changes the refractive index at the surface.

Experiment [2] concerns the target T1, Transferrin. The experiment is described as follows: SPR analysis of peptide pairs for binding to distinct sites on target. The following applies: peptides applied in 1:1 mixtures in pairs. An excerpt:
The transferrin target was immobilized on a Biacore T100 SPR chip, and candidate polypeptides were applied in 1:1 mixtures in pairs and response data obtained, in accordance with the methods described in Example 4 above. As illustrated in FIGS. 12A-D, upon flowing candidate polypeptides over the immobilized target, ideally one polypeptide applied alone would bind to a first binding site on the target and produce a first characteristic SPR response level (FIG. 12A), the other polypeptide would bind to a second, distinct binding site on the target, producing a second characteristic response level (FIG. 12B), and a mixture of the two polypeptides together (at the same concentrations as before) would produce a response level approximating the sum of the response levels produced by each polypeptide alone, as the polypeptides bind to distinct binding sites (FIG. 12C).

Experiment [3] addresses T1, Transferrin. The experiment in a line: Peptide microarray ranking, labeled transferrin with E. coli lysate competitor. The experiment is classed as binding. The method, then:
Several polypeptides were identified as candidate affinity elements for synbodies against an arbitrarily chosen protein target, transferrin, by incubating transferrin on the polypeptide microarray in the presence of E. coli lysate competitor. Transferrin was randomly direct-labeled at free amines with Alexa™ 555, and E. coli lysate was randomly direct-labeled at free amines with Alexa™ 647. Three replicate arrays were passivized by applying a mixture of BSA and mercaptohexanol for one hour. The arrays were blocked with unlabelled E. coli lysate for one hour, then washed three times with TBST (0.05% Tween) followed by three times with water. A mixture of labeled transferrin and labeled E. coli lysate was applied to the three replicate arrays and incubated for three hours. The arrays were again washed three times with TBST (0.05% Tween) followed by three times with water, and scanned at 555 nm and 647 nm using an array reader. Polypeptides were ranked as candidates for inclusion as affinity elements of synbodies by computing a score for each polypeptide equal to the mean raw 555 nm intensity over the six replicate features, squared, divided by the mean raw 647 nm intensity over the six replicate features. This simple scoring function tends to favor candidate polypeptides that bind at least moderate affinity, since otherwise the 555 nm intensity would be relatively lower, and that are relatively specific, since otherwise the 647 nm intensity would be relatively higher and contribute to a relatively lower score. Many variations of this ranking and identification process can be used, such as, by way of non-limiting examples, two-color comparisons against other competitors; comparisons with data taken in separate experiments with respect to other targets; and use of scoring functions taking into account other factors, employing other functional relationships, and/or involving statistical analysis and/or preprocessing of data and/or correcting for background fluorescence and/or other factors affecting the accuracy of the measured intensities. Ten polypeptides (Table 1) were identified for further evaluation for use as affinity elements in synbodies by choosing the polypeptides having the highest score (one polypeptide was rejected as difficult to synthesize, so the polypeptides chosen were ten of those having the eleven highest scores).
After preparation of the array in accordance with the methods previously described in Example 2, the array was washed one time for five minutes in 7.33% acetonitrile, 37% isopropanol, 0.55% trifluoroacetic acid, and 55% water. Alexa 555 labeled target protein transferrin was applied, together with Alexa 647 labeled E. coli lysate competitor, to the prewashed array and to an identical array without organic prewash. […] 5,010 on the array without organic prewash, but ranked no. 9601 on the prewashed array. Conversely, peptide TRF-21, shown by SPR analysis to be a relatively strong binder of transferrin, rose in rank from 84 on the non-prewashed array to rank no. 5 on the prewashed array.

Experiment [4] relates to 8,000 human proteins (GST fusion). The experiment is described as follows: Protein microarray screen (Invitrogen Protoarray Human Protein Microarray, 8,000 features). The following applies: fluorescence intensity. Type of experiment: binding. The method, then: Two biotinylated anti-TRF synbodies (SYN23-26 and SYN 21-22) were applied to a protein microarray having 8,000 features (Invitrogen Protoarray Human Protein Microarray v. 4.0 for immune response biomarker profiling), each feature comprising a distinct human protein (GST fusion) adsorbed to a nitrocellulose coated slide. Application of the synbodies to the microarray was performed in accordance with manufacturer instructions: (see ProtoArray Human Protein Microarray, Invitrogen, Catalog no. PAH052401, Version B, 15 Dec. 2006, 25-0970, Users Manual.) After blocking the array with 1% BSA/PBS/0.1% Tween for 1 hour at 4C with gentle shaking, 120 μl of probing buffer (1×PBS, 5 mM mgCl2, 0.5 mM DTT, 0.05% Triton X-100, 5% glycerol, 1% BSA) with synbody was applied to the array. The prescribed cover slip was placed over the array and adjusted to remove air bubbles. The array was incubated in a 50 ml conical tube, printed side up, for 1.5 hours at 4C without shaking. The array was then removed from the conical tube inserted diagonally into the array chamber, kept on ice. 8 ml probing buffer was added to the chamber wall. The cover slip was removed and the array was incubated in probing buffer for 1 minute on ice. […] The array was dried in the dark for 60 minutes at room temperature, after which it was scanned using a fluorescent microarray scanner and data was taken and analyzed.

The target of a further experiment is TNF-α (Homo sapiens, UniProt P01375). The experiment is described as follows: SPR verification of candidate TNF-α binding synbodies (Biacore T-100). The following applies: 1.25 μM to 9.8 nM. The method, then:
Candidate TNF-α binding synbodies were screened by surface plasmon resonance (SPR) on a Biacore T-100 SPR instrument to verify binding for TNF-α. A CM5 chip was activated using standard amine coupling chemistry and TNF-α was immobilized. Each synbody was prepared in HBS-N buffer with excess carboxymethyl dextran added to the running buffer to minimize non-specific binding to the chip surface. A concentration series of each synbody was prepared where the concentrations ranged from 1.25 μM to 9.8 nM.

Experiment [5] addresses Tumor Necrosis Factor-alpha (TNF-α) (Homo sapiens, UniProt P01375). The experiment is described as follows: Chromatographic affinity screening on protein-coupled pipette tips with MALDI readout. The following applies: 500 nM each synbody in E. Coli Lysate. Type of experiment: binding. The method, then: The target proteins, Transferrin (TRF) and Tumor Necrosis Factor-alpha (TNF-α), were each covalently attached to pipette tips (one protein per pipette tip) containing carboxymethyl dextran matrix (Intrinsic Bioprobes, Tempe, Ariz.) using standard amine coupling chemistry. The unmodified tips were first washed with 0.5 M HCl followed by acetone. Each tip was activated using a 50 mg/mL solution of […] (CDI) in N-methyl-pyrolidone (NMP). Each tip was washed with NMP to remove excess CDI. Each protein was prepared as a 50 μg/mL solution in 100 mM sodium acetate pH 5.0 and cycled through a CDI activated tip for 30 minutes. Un-reacted CDI in the tip was then quenched with the addition of 1.5 M ethanolamine pH 8.5 and then washed extensively with HBS-N buffer. The protein-coupled tips were then stored in HBS-N buffer at 4° C. Negative control tips were prepared in the same manner except that no protein was added to the sodium acetate solution during the protein coupling step.
A library of 14 candidate synbodies (Table 9) was prepared by making 12 μM stock solutions in 1× phosphate buffered saline (PBS) of each HPLC purified synbody and […] of each stock solution was added to 600 μL of E. Coli Lysate that had been treated with a protease inhibitor. Thus the final concentration of each synbody was 500 nM.
A negative control pipette tip (blank tip), a TRF tip, and a TNF-α tip, were washed with 0.1% sodium dodecyl sulfate (SDS) to remove any non-covalently bound protein and then washed with HBS buffer. The tips were then incubated for 15 minutes in 150 μL of the synbody library. Each tip was then washed 5 times in 150 μL of HBS-N. This step was then repeated and each tip was washed 5 times in 150 μL of 0.25 M NaCl. Each tip was then washed 5 times in 150 μL of Milli-Q water and this step was repeated. […]
Each elution sample was spotted onto a MALDI plate and analyzed in reflectron mode on a Bruker Daltonics UltraFlex III TOF/TOF MALDI Mass Spectrometer.

T1 sequence (P02787 20-698): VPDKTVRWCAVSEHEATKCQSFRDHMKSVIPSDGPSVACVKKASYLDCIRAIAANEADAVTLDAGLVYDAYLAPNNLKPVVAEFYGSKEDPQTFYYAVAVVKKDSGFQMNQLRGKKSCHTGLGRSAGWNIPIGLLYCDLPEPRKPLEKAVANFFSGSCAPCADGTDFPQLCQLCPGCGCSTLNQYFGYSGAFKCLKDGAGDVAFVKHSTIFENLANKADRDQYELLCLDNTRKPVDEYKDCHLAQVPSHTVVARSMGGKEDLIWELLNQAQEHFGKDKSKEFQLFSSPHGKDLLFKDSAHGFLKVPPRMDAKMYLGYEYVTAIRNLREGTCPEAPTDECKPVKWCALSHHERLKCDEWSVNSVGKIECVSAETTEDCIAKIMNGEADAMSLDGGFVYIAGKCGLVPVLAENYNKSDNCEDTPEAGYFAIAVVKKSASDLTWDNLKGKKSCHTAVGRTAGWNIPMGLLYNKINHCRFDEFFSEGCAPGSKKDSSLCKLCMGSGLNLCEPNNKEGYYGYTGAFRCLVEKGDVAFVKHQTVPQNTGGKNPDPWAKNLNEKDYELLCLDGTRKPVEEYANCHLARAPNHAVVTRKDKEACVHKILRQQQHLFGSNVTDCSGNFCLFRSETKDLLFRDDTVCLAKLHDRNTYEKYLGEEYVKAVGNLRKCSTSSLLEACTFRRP
Tumor Necrosis Factor-alpha (TNF-α), sequence (P01375 77-233 limits assumed, species assumed): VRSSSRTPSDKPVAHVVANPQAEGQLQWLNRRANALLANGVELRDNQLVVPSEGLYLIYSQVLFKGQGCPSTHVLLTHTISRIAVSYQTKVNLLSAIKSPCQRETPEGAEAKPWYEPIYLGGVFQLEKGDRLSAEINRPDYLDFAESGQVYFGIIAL
TNF-α, sequence (P01375 77-233 limits assumed, species assumed): as above

In the case of FRGWAHIFFGPHVIYRGGSC [TRF23], the dissociation constant Kd on Transferrin [1] is about 50 µM. At Transferrin [2], the “binding to distinct sites on transferrin” value was “bind distinct sites on transferrin”. For the same substance, at Transferrin [3] (array with organic prewash), the Rank -- prewash is 2091. Further, the Rank - non-prewash on Transferrin [3] (array without organic prewash) is given as 2722.

“I: AHKVVPQRQIRHAYNRYGSGKC / II: FRGWAHIFFGPHVIYRGGSG (amide I:21-II:C) [SYN23-26]”: in experiment [4], the “highest affinity target from a library of 8,000” value is given as “PCCA”.

Regarding “TNF1-TNF4-KC-stBu: lysine-linked synbody (peptide 1 FMNYPIKVPILVVPIGRGSGKC(StBu); peptide 2 MKSIIPMSVAQHQGPIKGSG; not fully specified)”, the “binding to TNF-α (sensorgrams)” value with TNF-α is listed as “no binding”. The “MALDI peak in TNF-α tip elution (retention by target)” value (“MALDI peak in TNF-α tip elution” for short) in experiment [5] is “no peak was observed”.

On to “TNF1-TNF10-KC-stBu: lysine-linked synbody (peptide 1 FRGWAHIFFGPHVIYRGGSGKC(StBu); peptide 2 MKSIIPMSVAQHQGPIKGSG; not fully specified)”, for which the “binding to TNF-α (sensorgrams)” value with TNF-α was “relatively strong binding kinetics”. Further, in experiment [5], the “MALDI peak in TNF-α tip elution” value was “showed a peak”.

“TNF2-TNF3-KC-stBu: lysine-linked synbody (peptide 1 SMKMVQPGHLLISYGHQGSGKC(StBu); peptide 2 RTTEMPFVFALGSVHPGGSG; not fully specified)”: the “MALDI peak in TNF-α tip elution” value in experiment [5] is given as “showed a peak”.

Usually Kd stands for the equilibrium constant for the complex coming apart.
